Reference: ChEMBL document CHEMBL3879891, “Hydrazone compounds and their use” (2011)

Columns and labels:
[1] = target: T1, Transient receptor potential cation channel subfamily M member 5 (Mus musculus) (UniProt Q9JJH7); experiment: Activation of TRPM5 in mouse GLUTag cells assessed as induction of 0.3 mM glucose-mediated GLP-1 secretion after 2 hrs by ELISA; assay type: cell-based
T1 sequence (whole entry): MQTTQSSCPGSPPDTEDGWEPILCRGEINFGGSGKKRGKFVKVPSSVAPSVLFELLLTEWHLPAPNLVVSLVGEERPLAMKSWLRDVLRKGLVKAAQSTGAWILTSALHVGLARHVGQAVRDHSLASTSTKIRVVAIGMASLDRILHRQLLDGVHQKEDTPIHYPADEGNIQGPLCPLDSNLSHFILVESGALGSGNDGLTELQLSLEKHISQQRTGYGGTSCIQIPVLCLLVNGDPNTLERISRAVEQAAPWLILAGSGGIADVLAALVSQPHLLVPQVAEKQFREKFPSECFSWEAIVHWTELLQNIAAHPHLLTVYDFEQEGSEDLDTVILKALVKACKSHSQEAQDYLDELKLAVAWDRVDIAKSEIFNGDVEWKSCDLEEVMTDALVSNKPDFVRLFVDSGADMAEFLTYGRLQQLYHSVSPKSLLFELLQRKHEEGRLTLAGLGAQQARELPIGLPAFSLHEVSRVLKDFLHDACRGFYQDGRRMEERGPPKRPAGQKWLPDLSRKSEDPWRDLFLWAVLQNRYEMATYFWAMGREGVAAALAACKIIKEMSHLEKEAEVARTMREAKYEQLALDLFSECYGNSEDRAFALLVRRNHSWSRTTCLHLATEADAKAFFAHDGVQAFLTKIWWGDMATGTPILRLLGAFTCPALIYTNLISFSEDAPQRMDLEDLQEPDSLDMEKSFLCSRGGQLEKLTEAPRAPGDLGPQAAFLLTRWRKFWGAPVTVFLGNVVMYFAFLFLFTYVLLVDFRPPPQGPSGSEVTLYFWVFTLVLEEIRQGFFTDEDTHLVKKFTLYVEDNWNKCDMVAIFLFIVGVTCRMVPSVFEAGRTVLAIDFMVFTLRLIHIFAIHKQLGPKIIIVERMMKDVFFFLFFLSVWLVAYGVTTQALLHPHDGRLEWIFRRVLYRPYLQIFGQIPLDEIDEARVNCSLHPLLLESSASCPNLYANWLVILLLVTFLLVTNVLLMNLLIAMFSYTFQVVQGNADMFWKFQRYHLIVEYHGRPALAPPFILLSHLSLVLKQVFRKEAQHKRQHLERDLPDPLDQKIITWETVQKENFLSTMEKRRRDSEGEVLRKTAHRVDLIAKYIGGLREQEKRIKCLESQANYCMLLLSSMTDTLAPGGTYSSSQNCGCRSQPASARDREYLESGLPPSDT

[2] = target: Transient receptor potential cation channel, subfamily M, member 5 (Rattus norvegicus) (UniProt A0A8I6AG64); experiment: Activation of TRPM5 in Sprague-Dawley rat primary islets assessed as induction of 12 mM glucose-mediated insulin secretion after 3 hrs by ELISA
Sequence of Transient receptor potential cation channel, subfamily M, member 5 (Rattus norvegicus) (A0A8I6AG64 as listed by the source): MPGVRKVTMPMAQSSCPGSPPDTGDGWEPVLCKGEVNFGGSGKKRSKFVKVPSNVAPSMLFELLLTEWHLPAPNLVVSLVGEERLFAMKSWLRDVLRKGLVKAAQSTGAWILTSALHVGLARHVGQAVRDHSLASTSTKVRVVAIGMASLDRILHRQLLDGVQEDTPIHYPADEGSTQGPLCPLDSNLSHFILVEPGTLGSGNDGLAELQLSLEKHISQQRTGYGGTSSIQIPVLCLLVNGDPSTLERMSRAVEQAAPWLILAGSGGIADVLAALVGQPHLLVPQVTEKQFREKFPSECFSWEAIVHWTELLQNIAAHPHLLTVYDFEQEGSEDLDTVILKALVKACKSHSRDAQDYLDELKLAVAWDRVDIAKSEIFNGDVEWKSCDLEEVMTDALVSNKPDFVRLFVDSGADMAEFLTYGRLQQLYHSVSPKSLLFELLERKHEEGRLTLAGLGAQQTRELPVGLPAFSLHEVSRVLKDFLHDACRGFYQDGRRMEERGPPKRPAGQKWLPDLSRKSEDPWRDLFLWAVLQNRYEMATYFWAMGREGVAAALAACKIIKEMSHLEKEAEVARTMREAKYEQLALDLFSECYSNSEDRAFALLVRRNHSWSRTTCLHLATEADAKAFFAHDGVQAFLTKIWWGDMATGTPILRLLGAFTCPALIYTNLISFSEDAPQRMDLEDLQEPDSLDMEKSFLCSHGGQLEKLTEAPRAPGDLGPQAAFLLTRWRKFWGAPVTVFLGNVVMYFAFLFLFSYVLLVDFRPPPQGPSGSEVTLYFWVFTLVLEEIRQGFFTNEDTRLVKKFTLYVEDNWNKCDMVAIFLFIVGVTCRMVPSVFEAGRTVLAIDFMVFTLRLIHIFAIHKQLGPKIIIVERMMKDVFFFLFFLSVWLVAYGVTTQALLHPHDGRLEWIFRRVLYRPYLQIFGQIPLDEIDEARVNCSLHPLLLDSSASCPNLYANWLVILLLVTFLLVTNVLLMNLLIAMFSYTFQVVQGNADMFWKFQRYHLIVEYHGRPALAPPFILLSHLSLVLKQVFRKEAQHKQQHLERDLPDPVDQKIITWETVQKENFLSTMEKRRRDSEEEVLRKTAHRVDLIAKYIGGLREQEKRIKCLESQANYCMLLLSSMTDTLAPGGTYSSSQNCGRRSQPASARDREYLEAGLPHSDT

[3] = target: T1, Transient receptor potential cation channel subfamily M member 5 (Mus musculus); experiment: Activation of TRPM5 in SV40 expressing transgenic mouse Beta-TC-6 cells assessed as induction of 1 mM glucose-mediated insulin secretion after 2 hrs by ELISA

Activity [1]: Dose-dependent effect
Activity [2]: Dose-dependent effect
Activity [3]: Dose-dependent effect
Compound: Cc1cc(/C=N/NC(=O)[C@@H]2C[C@H]2c2ccccc2)cc2cccnc12 (relative stereo)
